Key:
CDK2/Cyclin A2 = CDK2/Cyclin A2 (Homo sapiens, UniProt P24941); assay type: protein-complex assay
Description: Inhibition of human full length CDK2/CyclinA2 by ADP-Glo kinase assay

HCT-116 = assay: Antiproliferative activity against human HCT-116 cells assessed as cell growth inhibition after 72 hrs by MTT assay; assay type: functional
SW480 = assay: Antiproliferative activity against human SW480 cells assessed as cell growth inhibition after 72 hrs by MTT assay; assay type: functional
A549 = assay: Antiproliferative activity against human A549 cells assessed as cell growth inhibition after 72 hrs by MTT assay; assay type: functional
MCF7 = assay: Antiproliferative activity against human MCF7 cells assessed as cell growth inhibition after 72 hrs by MTT assay; assay type: functional
Acetylcholinesterase = Acetylcholinesterase (Electrophorus electricus, UniProt O42275); assay: Inhibition of electric eel AChE using acetylthiocholine […] as substrate for 20 mins by Ellman's method
Cholinesterase = Cholinesterase (Equus caballus, UniProt P81908); assay: Inhibition of equine serum BuChE using […] as substrate for 20 mins by Ellman's method
[1] = Selectivity index, ratio of IC50 for electric eel AChE to IC50 for CDK9/CyclinT1 (unknown origin)
[2] = Selectivity index, ratio of IC50 for equine serum BuChE to IC50 for CDK9/CyclinT1 (unknown origin)
[3] = Selectivity index, ratio of IC50 for human full length CDK2/CyclinA to IC50 for CDK9/CyclinT1 (unknown origin)
CDK9/cyclin T1 = CDK9/cyclin T1 (Homo sapiens, UniProt P50750)
Description: Inhibition of CDK9/CyclinT1 (unknown origin) by ADP-Glo kinase assay

[4] = target: CDK9/cyclin T1 (Homo sapiens) (UniProt O60563+P50750); assay: Inhibition of CDK9/CyclinT1 (unknown origin) at 500 nM by ADP-Glo kinase assay relative to control; assay type: protein-complex assay

Sequence of Acetylcholinesterase (O42275 whole entry): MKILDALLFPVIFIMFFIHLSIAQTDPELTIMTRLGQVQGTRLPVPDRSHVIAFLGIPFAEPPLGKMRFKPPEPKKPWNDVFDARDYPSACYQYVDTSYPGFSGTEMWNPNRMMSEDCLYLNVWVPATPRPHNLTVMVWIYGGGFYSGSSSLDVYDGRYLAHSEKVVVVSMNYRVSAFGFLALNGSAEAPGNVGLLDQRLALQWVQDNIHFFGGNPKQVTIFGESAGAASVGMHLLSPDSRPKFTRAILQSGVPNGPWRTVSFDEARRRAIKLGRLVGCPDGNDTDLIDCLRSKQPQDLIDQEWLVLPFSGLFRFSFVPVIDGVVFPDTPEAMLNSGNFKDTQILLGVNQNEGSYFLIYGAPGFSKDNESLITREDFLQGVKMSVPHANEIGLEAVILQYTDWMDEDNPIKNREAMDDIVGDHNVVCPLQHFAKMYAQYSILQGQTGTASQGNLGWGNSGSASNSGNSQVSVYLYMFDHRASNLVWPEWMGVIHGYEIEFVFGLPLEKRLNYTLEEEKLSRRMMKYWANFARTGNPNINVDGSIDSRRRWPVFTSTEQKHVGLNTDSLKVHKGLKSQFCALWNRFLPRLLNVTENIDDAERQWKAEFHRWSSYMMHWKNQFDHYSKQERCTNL
Sequence of CDK9/cyclin T1 (O60563 whole entry): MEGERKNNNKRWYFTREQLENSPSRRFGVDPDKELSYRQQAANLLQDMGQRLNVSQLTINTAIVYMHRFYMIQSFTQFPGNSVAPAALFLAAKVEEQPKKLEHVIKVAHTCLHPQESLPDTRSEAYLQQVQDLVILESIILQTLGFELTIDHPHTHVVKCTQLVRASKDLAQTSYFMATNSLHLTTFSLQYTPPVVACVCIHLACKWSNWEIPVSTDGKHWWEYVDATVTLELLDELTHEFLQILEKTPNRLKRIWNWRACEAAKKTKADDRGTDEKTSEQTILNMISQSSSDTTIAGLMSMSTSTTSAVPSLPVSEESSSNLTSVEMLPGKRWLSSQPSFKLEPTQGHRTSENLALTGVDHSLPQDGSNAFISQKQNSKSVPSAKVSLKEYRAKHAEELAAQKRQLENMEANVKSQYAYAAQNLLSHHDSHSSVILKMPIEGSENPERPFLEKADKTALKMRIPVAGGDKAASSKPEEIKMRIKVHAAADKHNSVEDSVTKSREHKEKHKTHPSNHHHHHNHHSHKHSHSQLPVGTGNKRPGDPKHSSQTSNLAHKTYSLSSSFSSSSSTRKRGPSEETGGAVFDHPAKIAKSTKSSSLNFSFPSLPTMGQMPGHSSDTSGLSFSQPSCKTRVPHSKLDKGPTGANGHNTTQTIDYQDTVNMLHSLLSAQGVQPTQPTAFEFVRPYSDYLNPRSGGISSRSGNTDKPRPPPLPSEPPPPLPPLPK
Sequence of CDK9/cyclin T1 (P50750 whole entry): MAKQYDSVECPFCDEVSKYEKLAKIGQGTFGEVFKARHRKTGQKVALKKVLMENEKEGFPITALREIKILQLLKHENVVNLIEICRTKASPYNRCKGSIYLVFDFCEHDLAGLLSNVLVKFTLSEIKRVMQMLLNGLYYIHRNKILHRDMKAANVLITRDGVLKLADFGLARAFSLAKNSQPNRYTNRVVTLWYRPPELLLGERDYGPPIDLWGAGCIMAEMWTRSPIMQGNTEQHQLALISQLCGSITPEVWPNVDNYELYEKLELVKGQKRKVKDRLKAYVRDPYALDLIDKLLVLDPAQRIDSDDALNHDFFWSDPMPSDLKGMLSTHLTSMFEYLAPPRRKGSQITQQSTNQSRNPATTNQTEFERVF
Sequence of Cholinesterase (P81908 whole entry): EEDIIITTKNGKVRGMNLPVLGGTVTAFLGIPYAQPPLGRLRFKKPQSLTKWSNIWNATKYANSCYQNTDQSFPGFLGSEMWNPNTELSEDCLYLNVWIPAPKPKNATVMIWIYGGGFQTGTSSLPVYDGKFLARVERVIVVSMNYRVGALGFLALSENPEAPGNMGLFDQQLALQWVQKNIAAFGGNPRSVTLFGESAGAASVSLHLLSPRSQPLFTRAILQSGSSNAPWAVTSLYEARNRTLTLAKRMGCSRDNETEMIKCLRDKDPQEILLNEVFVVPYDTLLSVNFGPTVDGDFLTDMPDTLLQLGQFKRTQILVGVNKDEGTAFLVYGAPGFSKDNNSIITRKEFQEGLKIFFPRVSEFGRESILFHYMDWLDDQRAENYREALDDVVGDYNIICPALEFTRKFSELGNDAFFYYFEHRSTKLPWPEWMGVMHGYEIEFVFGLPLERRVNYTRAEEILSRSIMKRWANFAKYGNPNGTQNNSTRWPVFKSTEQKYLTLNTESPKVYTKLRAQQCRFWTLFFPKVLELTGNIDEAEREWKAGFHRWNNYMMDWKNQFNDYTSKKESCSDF

Row | Compound | IC50 (CDK2/Cyclin A2) [nM] | GI50 (HCT-116) [nM] | GI50 (SW480) [nM] | GI50 (A549) [nM] | GI50 (MCF7) [nM] | IC50 (Acetylcholinesterase) [nM] | IC50 (Cholinesterase) [nM] | Selectivity Index [1] | Selectivity Index [2] | Selectivity Index [3] | IC50 (CDK9/cyclin T1) [nM] | inhibition [4] [%]
1 | N[C@H]1CCN(c2c3c(nc4ccc(-c5ccnc(NC(=O)C6CC6)c5)cc24)CCCCC3)C1 | 5.51 | 18 | 33 | 28 | 76 | 31100 | 1960 | 14200 | 894 | 3 | 2.19 | –
2 | N[C@H]1CCN(c2c3c(nc4ccc(-c5cccnc5)cc24)CCCCC3)C1 | > 500 | > 10000 | > 3000 | > 10000 | > 10000 | 13700 | 722 | – | – | – | > 500 | –
3 | N[C@H]1CCN(c2c3c(nc4ccc(-c5cc(NC(=O)C6CC6)ncn5)cc24)CCCCC3)C1 | 14.7 | 201 | 316 | 166 | 161 | 7200 | 3850 | 1250 | 669 | 3 | 5.75 | –
4 | N[C@H]1CCN(c2c3c(nc4ccc(-c5ccnc(NC(=O)C6CC6)c5)cc24)CCCC3)C1 | – | 29 | 328 | – | 109 | – | – | – | – | – | 2.23 | –
5 | N[C@H]1CCN(c2c3c(nc4ccc(-c5ccnc(Nc6cccc(S(=O)(=O)N7CCOCC7)c6)c5)cc24)CCCCC3)C1 | > 500 | 2000 | 3200 | 3300 | 3440 | 28500 | 1980 | – | – | – | – | 57.5
6 | N[C@H]1CCN(c2c3c(nc4ccc(-c5nccc(NC(=O)C6CC6)n5)cc24)CCCCC3)C1 | > 500 | > 3000 | > 3000 | > 10000 | 8390 | 17600 | 2510 | – | – | – | > 500 | –
7 | N[C@H]1CCN(c2c3c(nc4ccc(-c5ccnc(NC(=O)C6CCC6)c5)cc24)CCCCCC3)C1 | 7.74 | 46 | 118 | 109 | 108 | 26500 | 698 | 8920 | 235 | 3 | 2.97 | –
8 | N[C@H]1CCN(c2c3c(nc4ccc(-c5ccnc(F)c5)cc24)CCCCC3)C1 | > 500 | 3980 | 4690 | 8440 | 7080 | 21400 | 2250 | – | – | – | – | 73
9 | N[C@H]1CCN(c2c3c(nc4ccc(-c5ccccc5)cc24)CCCCC3)C1 | > 500 | 5880 | 2930 | 9530 | 4060 | 19100 | 133 | – | – | – | > 500 | –
10 | CN(C)S(=O)(=O)c1ccc(Nc2cc(-c3ccc4nc5c(c(N6CC[C@H](N)C6)c4c3)CCCCC5)ccn2)cc1 | > 500 | 2180 | 1810 | 1990 | 3110 | 35200 | 1060 | 346 | 10 | 0.5 | 102 | –
11 | N[C@H]1CCN(c2c3c(nc4ccc(-c5ccnc(C(=O)NC6CC6)c5)cc24)CCCCC3)C1 | > 500 | 4740 | 9120 | > 10000 | 10400 | 5570 | 4990 | – | – | – | > 500 | –
12 | N[C@H]1CCN(c2c3c(nc4ccc(-c5ccnc(NC(=O)C6CC6)c5)cc24)-c2ccccc2CCC3)C1 | > 500 | 2670 | 3050 | 1900 | 2220 | > 50000 | 3340 | – | 28 | – | 111 | –
13 | N[C@H]1CCN(c2c3c(nc4ccc(-c5ccnc(NC(=O)C6CC6)c5)cc24)CCCCCC3)C1 | 2.92 | 14 | 34 | 52 | 65 | 17200 | – | 9210 | – | 2 | – | –
14 | N[C@H]1CCN(c2c3c(nc4ccc(-c5ccnc(NC(=O)C6CCCC6)c5)cc24)CCCCC3)C1 | 17.6 | 134 | 65 | 83 | 210 | 17100 | 1180 | 6180 | 425 | 6 | 2.77 | –
15 | N[C@H]1CCN(c2c3c(nc4ccc(-c5ccnc(NC(=O)C6CCC6)c5)cc24)CCC3)C1 | 86 | 138 | 456 | 195 | 333 | 1760 | 3180 | 275 | 497 | 13 | 6.39 | –
16 | N[C@H]1CCN(c2c3c(nc4ccc(-c5ccnc(NC(=O)C6CC6)n5)cc24)CCCCCC3)C1 | 18.7 | 14 | 18 | 64 | 71 | 20700 | 2730 | 7200 | 948 | 7 | 2.88 | –
17 | N[C@H]1CCN(c2c3c(nc4ccc(-c5ccnc(NC(=O)C6CC6)n5)cc24)-c2ccccc2CCC3)C1 | > 500 | > 10000 | 9530 | 9470 | 6330 | > 50000 | 12700 | – | – | – | – | 72.7
18 | N[C@@H]1CCN(c2c3c(nc4ccc(-c5ccnc(NC(=O)C6CC6)c5)cc24)CCCCC3)C1 | 6.46 | 39 | 49 | 41 | 80 | – | 4780 | – | 2560 | 3 | – | –
19 | N[C@H]1CCN(c2c3c(nc4ccc(-c5ccnc(NC(=O)C6CC6)c5)cc24)CCC3)C1 | 252 | 73 | 251 | 191 | 203 | 2250 | 6010 | 671 | 1790 | 75 | 3.36 | –
20 | N[C@H]1CCN(c2c3c(nc4ccc(-c5ccnc(NC(=O)C6CCC6)c5)cc24)CCCCC3)C1 | 10.7 | 86 | 80 | 77 | 168 | 17600 | 1180 | 4290 | 288 | 3 | 4.11 | –
21 | N[C@H]1CCN(c2c3c(nc4ccc(-c5ccncc5)cc24)CCCCC3)C1 | > 500 | 272 | 458 | 393 | 424 | 24800 | 422 | 2970 | 51 | – | 8.35 | –
22 | N[C@H]1CCN(c2c3c(nc4ccc(-c5ccnc(NC(=O)C6CCCCC6)c5)cc24)CCCCC3)C1 | 59.5 | 262 | 1260 | 308 | 404 | 20800 | 1660 | 9550 | 763 | 27 | 2.18 | –
